# Assay results from patent publication US20260317388A1, “SELECTIVE NUCLEAR BLOCKADE FOR THE TREATMENT OF SEPSIS” (priority 2023, published 2026).
# Positions of bridges follow the written chain, without caps; N, C: chain ends. Residues, ends and D or L forms follow the SMILES beside them.
# Assays:
# [1] = Solubility; format: physicochemical
# [2] = system: sepsis; details: antibiotic-treated control group; cited from earlier work
SMILES,solubility [1] [mg/mL],water solubility and bioavailability relative to SN50 peptide ([1]; vs first generation NTCI (SN50 peptide)) [times],survival with meropenem alone [2] [%]
CSCC[C@@H]1NC(=O)[C@H](CC(C)C)NC(=O)[C@H](CCCCN)NC(=O)[C@H](CCC(N)=O)NC(=O)[C@H](CCCNC(=N)N)NC(=O)[C@H](CCCCN)NC(=O)[C@H](CCCNC(=N)N)NC(=O)[C@H](CCC(N)=O)NC(=O)[C@H](C(C)C)NC(=O)[C@@H](NC(=O)[C@@H]2CCCN2C(=O)[C@H](C)NC(=O)[C@H](CC(C)C)NC(=O)[C@H](CC(C)C)NC(=O)[C@H](C)NC(=O)[C@H](CC(C)C)NC(=O)[C@H](CC(C)C)NC(=O)[C@@H](NC(=O)[C@H](C)NC(=O)[C@@H]2CCCN2C(=O)[C@H](CC(C)C)NC(=O)[C@H](CC(C)C)NC(=O)[C@H](C)NC(=O)[C@@H](NC(=O)[C@H](C)NC(=O)[C@H](C)N)C(C)C)C(C)C)CSSC[C@@H](C(=O)O)NC(=O)[C@@H]2CCCN2C1=O [cSN50.1] (H-AAVALLPAVLLALLAPCVQRKRQKLMPC-OH; disulfide 17-28),≥ 100,8,
C[C@@H](O)[C@H]1C(=O)N2C(C(=O)O)=C(S[C@@H]3CN[C@H](C(=O)N(C)C)C3)[C@H](C)[C@H]12 [meropenem],,,30
